Measurements from patent US11672795B2, “Compositions and methods for treating pulmonary vascular disease” (UNIVERSITY OF PITTSBURGH-OF THE COMMONWEALTH SYSTEM OF …, priority 2016, dated 2023).

Tested on: PAECs
Assay: Proliferation of PAECs (cell count, BrdU pulse, PCNA staining)
Type: cell-based, human
Conditions: PAECs, stiff matrix, 48 h after plating
Protocol: A-C) PAECs were plated on soft (1 kPa) or stiff (50 kPa) matrix and exposed to indicated treatments. Apoptosis (A-C) and proliferation (B-C) were quantified 48 h after plating. […] Apoptosis (as reflected by cleaved caspase-3 staining, CC-3+) was increased by serum starvation in both soft and stiff conditions but was not affected by GLS1 inhibition. In all panels, mean expression in control groups (soft matrix) was assigned a fold change of 1, to which relevant samples were compared. Data are expressed as mean±SD (*P<0.05; ** P<0.01, ***P<0.001).
After various indicated treatments, cultured cells were fixed with PBS/PFA 4% for 10 min and permeabilized with PBS/Triton 100×0.1% for 10 min. The cells were then incubated with anti-PCNA (#4912; 1/100; Invitrogen), anti-Ki67 (ab15580; 1/200; Abcam), and/or anti-cleaved caspase-3 (1/200; Cell Signaling) at room temperature for 2 hours. Secondary antibodies coupled with Alexa-594 and/or Alexa-488 (Thermo Scientific) were used at 1/500. Nuclei were counterstained with DAPI (Sigma).
After specified pre-treatment or transfection protocols as indicated, PAECs or PASMCs were plated in triplicate in 6 well plates at 30 000 cells per well. After overnight incubation for cells to adhere, 6 wells were counted to determine initial count at time of treatments (glutamate, aspartate, BPTES, DON or C968). After 2 days, 4 days or 6 days, the contents of the wells were trypsinized and counted, and proliferation rate was calculated.
Exponentially growing cells were plated in the indicated matrix for 48 hours.

In the case of `CN(C)c1ccc(C2Nc3ccc4ccccc4c3C3=C2C(=O)CC(C)(C)C3)cc1Br` (stereo not shown) [C968, 5-(3-Bromo-4-(dimethylamino)phenyl)-2,2-dimethyl-2,3,5,6-tetrahydrobenzo[a]phenanthridin-4(1H)-one], the “proliferation in stiff matrix (PCNA+)” value is reported as “decreased”.
